From patent publication US9145405B2, “Oxadiazole compound and preparation method thereof, pharmaceutical composition and use thereof” (SHANGHAI JIAO TONG UNIVERSITY, priority 2011, dated 2015)
Values after ≈ are worked out from the molar mass of the structure shown. Like-named read-outs stand apart in the source and are kept apart here. One block for each molecule: values may come before it.

How the values were obtained:
[1] = system: Cox_B3 virus; test: Anti-Cox_B3 test: inhibition of cytopathic effect (CPE) in infected Vero cells, Reed-Muench; assay type: cell-based; settings: for IC50: read-out: IC50 (half-inhibitory concentration for viruses)
Source text: The present examples verifies experimental results of anti-Cox_B3 of the compounds 1-137of the present invention, Pleconaril, 3-[3,5-dimethyl-4-[5-(3-methy-1,2-oxazolyl)propoxy]phenyl]-5-(trifluonomethyl) -1,2,4-oxadiazole is used as positive control.

[2] = system: Vero cells; test: Toxicity (half toxic concentration) in the anti-Cox_B3 test on Vero cells; assay type: cell-based
[3] = Cox_B3 virus in Vero cells, CPE, Reed-Muench method

Structure (SMILES): Cc1ccc(OCCOc2c(C)cc(-c3noc(C(F)(F)F)n3)cc2C)c(F)c1 [Compound 39, 3-[3,5-dimethyl-4-[(2-fluoro-4-methylphenoxyl)ethoxyl]phenyl]-5-(trifluoromethyl)-1,2,4-oxadiazole]
IC50 [1, 3]: 0.056 µg/mL (≈ 0.136 µM) | TC50 (half of the toxic concentration) ([2]; Vero cells, Cox_B3): 44.28 µg/mL

Structure (SMILES): COc1ccc(OCCOc2c(C)cc(-c3noc(C(F)(F)F)n3)cc2C)c(F)c1 [Compound 40, 3-[3,5-dimethyl-4-[(2-fluoro-4-methoxyphenoxyl)ethoxyl]phenyl]-5-(trifluoromethyl)-1,2,4-oxadiazole]
IC50 [1, 3]: 0.044 µg/mL (≈ 0.103 µM) | TC50 (half of the toxic concentration) ([2]; Vero cells, Cox_B3): 45.39 µg/mL

Structure (SMILES): Cc1cc(-c2noc(C(F)(F)F)n2)cc(C)c1OCCOc1ccc([N+](=O)[O-])cc1F [Compound 41, 3-[3,5-dimethyl-4-[(2-fluoro-4-nitrophenoxyl)ethoxyl]phenyl]-5-(trifluoromethyl)-1,2,4-oxadiazole]
IC50 [1, 3]: 0.033 µg/mL (≈ 0.0748 µM) | TC50 (half of the toxic concentration) ([2]; Vero cells, Cox_B3): 46.89 µg/mL

Structure (SMILES): Cc1cc(-c2noc(C(F)(F)F)n2)cc(C)c1OCCOc1c(Cl)cccc1Cl [Compound 42, 3-[3,5-dimethyl-4-[(2,6-dichlorophenoxyl)ethoxyl]phenyl]-5-(trifluoromethyl)-1,2,4-oxadiazole]
IC50 [1, 3]: 0.033 µg/mL (≈ 0.0738 µM) | TC50 (half of the toxic concentration) ([2]; Vero cells, Cox_B3): 36.89 µg/mL

Structure (SMILES): CCON=Cc1ccc(OCCOc2c(C)cc(-c3noc(C(F)(F)F)n3)cc2C)cn1 [Compound 44, 6-[2,6-dimethyl-4-[(5-(trifluoromethyl)-1,2,4-oxadiazole-3-yl)phenoxyl]ethoxyl]pyridine-2-oxy-ethylketoxime]
IC50 (half-inhibitory concentration for viruses) [1, 3]: 0.078 µg/mL | TC50 (half of the toxic concentration) [2]: 34.35 µg/mL

Structure (SMILES): Cc1cc(-c2noc(C(F)(F)F)n2)cc(C)c1OCCOC(C)(C)C [Compound 90, 3-[3,5-dimethyl-4-[(2-tert-butoxy)ethoxyl]phenyl]-5-(trifluoromethyl)-1,2,4-oxadiazole]
IC50 (half-inhibitory concentration for viruses) [1, 3]: 0.15 µg/mL | TC50 (half of the toxic concentration) [2]: 38.28 µg/mL

Structure (SMILES): COC(=O)c1cnc(OCCOc2c(C)cc(-c3noc(C)n3)cc2C)c(F)c1 [Compound 103]
IC50 (half-inhibitory concentration for viruses) [1, 3]: 0.07 µg/mL | TC50 (half of the toxic concentration) [2]: 39.55 µg/mL

Structure (SMILES): Cc1nc(-c2ccc(OCCOc3c(C)cc(-c4noc(C(F)(F)F)n4)cc3C)cc2)no1 [Compound 111, 3-[3,5-dimethyl-4-[2-[4-(5-methyl-1,2,4-oxadiazole-3-yl)phenoxyl]ethoxyl]phenyl]-5-(trifluoromethyl)-1,2,4-oxadiazole]
IC50 [1, 3]: 0.051 µg/mL (≈ 0.111 µM) | TC50 (half of the toxic concentration) ([2]; Vero cells, Cox_B3): 38.21 µg/mL

Structure (SMILES): Cc1cc(-c2noc(C(F)(F)F)n2)cc(C)c1OCCOc1ccc(-c2noc(C(F)(F)F)n2)cn1 [Compound 114, 2-[2-[2,6-dimethyl-4-[5-(trifluoromethyl)-1,2,4-oxadiazole-3-yl]phenoxyl]ethoxyl]-5-[5-(trifluoromethyl)-1,2,4-oxadiazole-3-yl]-pyridine]
IC50 [1, 3]: 0.038 µg/mL (≈ 0.0737 µM) | TC50 (half of the toxic concentration) ([2]; Vero cells, Cox_B3): 36.32 µg/mL

Structure (SMILES): Cc1cc(-c2noc(C(F)(F)F)n2)cc(C)c1OCCOc1ncc(-c2noc(C(F)(F)F)n2)cc1F [Compound 116, 2-[2-[2,6-dimethyl-4-[5-(trifluoromethyl)-1,2,4-oxadiazole-3-yl]phenoxyl]ethoxyl]-3-fluoro-5-[5-(trifluoromethyl)-1,2,4-oxadiazole-3-yl]-pyridine]
IC50 [1, 3]: 0.034 µg/mL (≈ 0.0637 µM) | TC50 (half of the toxic concentration) ([2]; Vero cells, Cox_B3): 39.21 µg/mL

Structure (SMILES): Cc1cc(-c2noc(C(F)(F)F)n2)cc(C)c1OCCOc1ccc(-c2noc(C(F)(F)F)n2)cc1F [Compound 123]
IC50 (half-inhibitory concentration for viruses) [1, 3]: 0.043 µg/mL | TC50 (half of the toxic concentration) [2]: 35.88 µg/mL

Structure (SMILES): Cc1cc(-c2noc(C(F)(F)F)n2)cc(C)c1OCCCOc1ccc(-c2noc(C(F)(F)F)n2)cc1F [Compound 124]
IC50 (half-inhibitory concentration for viruses) [1, 3]: 0.037 µg/mL | TC50 (half of the toxic concentration) [2]: 32.58 µg/mL

Structure (SMILES): Cc1cc(-c2noc(C(F)(F)F)n2)cc(C)c1OCCCOC1CCC(C)C(C)C1 (stereo not drawn) [Compound 129, 3-[4-[3-[3,4-dimethylcyclohexyloxy]propoxy]-3,5-dimethylphenyl]-5-(trifluoromethyl)-1,2,4-oxadiazole]
IC50 ([1]; Vero): 0.025 µg/mL (≈ 0.0586 µM) | TC50 (half of the toxic concentration) ([2]; Vero cells, Cox_B3): 35.46 µg/mL

Structure (SMILES): Cc1cc(-c2noc(C(F)(F)F)n2)cc(C)c1OCCCOc1cnc(C#N)cn1 [Compound 131, 2-cyano-5-[3-[2,6-dimethyl-4-[5-(trifluoromethyl)-1,2,4-oxadiazole-3-yl]phenoxyl]propoxy]pyrazine]
IC50 ([1]; Vero): 0.035 µg/mL (≈ 0.0835 µM) | TC50 (half of the toxic concentration) ([2]; Vero cells, Cox_B3): 36.87 µg/mL

Structure (SMILES): Cc1cc(-c2noc(C(F)(F)F)n2)cc(C)c1OCCCOc1ncc(C#N)cn1 [Compound 132, 2-[3-[2,6-dimethyl-4-[5-(trifluoromethyl)-1,2,4-oxadiazole-3-yl]phenoxyl]propoxy]-5-cyano-pyrimidine]
IC50 [1, 3]: 0.04 µg/mL (≈ 0.0954 µM) | TC50 (half of the toxic concentration) ([2]; Vero cells, Cox_B3): 39.23 µg/mL

Structure (SMILES): Cc1cc(-c2noc(C(F)(F)F)n2)cc(C)c1OCCCOc1ccc(C#N)nn1 [Compound 133, 3-cyano-6-[3-[2,6-dimethyl-4-[5-(trifluoromethyl)-1,2,4-oxadiazole-3-yl]phenoxyl]propoxy]pyridazine]
IC50 [1, 3]: 0.041 µg/mL (≈ 0.0978 µM) | TC50 (half of the toxic concentration) ([2]; Vero cells, Cox_B3): 38.78 µg/mL

Further lines, with some results ahead:

IC50 [1, 3]: 0.044 µg/mL (≈ 0.0984 µM)
Structure (SMILES): Cc1cc(-c2noc(C(F)(F)F)n2)cc(C)c1OCCOc1ccc(Cl)cc1Cl [Compound 43, 3-[3,5-dimethyl-4-[(2,4-dichlorophenoxyl)ethoxyl]phenyl]-5-(trifluoromethyl)-1,2,4-oxadiazole]
TC50 (half of the toxic concentration) ([2]; Vero cells, Cox_B3): 35.66 µg/mL

IC50 (half-inhibitory concentration for viruses) [1, 3]: 0.096 µg/mL
Structure (SMILES): COC(=O)c1cnc(OCCOc2c(C)cc(-c3noc(C(F)(F)F)n3)cc2C)c(F)c1 [Compound 49, 6-[2,6-dimethyl-4-[(5-(trifluoromethyl)-1,2,4-oxadiazole-3-yl)phenoxyl]ethoxyl]-5-fluoro-3-pyridinecarboxylate]
TC50 (half of the toxic concentration) [2]: 35.36 µg/mL

IC50 [1, 3]: 0.032 µg/mL (≈ 0.0622 µM)
Structure (SMILES): Cc1cc(-c2noc(C(F)(F)F)n2)cc(C)c1OCCOc1ccc(-c2noc(C(F)(F)F)n2)cc1 [Compound 112, 3-[3,5-dimethyl-4-[2-[4-[5-(trifluoromethyl)-1,2,4-oxadiazole-3-yl]phenoxyl]ethoxyl]phenyl]-5-(trifluoromethyl)-1,2,4-oxadiazole]
TC50 (half of the toxic concentration) ([2]; Vero cells, Cox_B3): 34.98 µg/mL

IC50 [1, 3]: 0.036 µg/mL (≈ 0.078 µM)
Structure (SMILES): Cc1nc(-c2ccc(OCCOc3c(C)cc(-c4noc(C(F)(F)F)n4)cc3C)nc2)no1 [Compound 113, 2-[2-[2,6-dimethyl-4-[5-(trifluoromethyl)-1,2,4-oxadiazole-3-yl]phenoxyl]ethoxyl]-5-(5-methyl-1,2,4-oxadiazole-3-yl)-pyridine]
TC50 (half of the toxic concentration) ([2]; Vero cells, Cox_B3): 35.22 µg/mL

IC50 [1, 3]: 0.037 µg/mL (≈ 0.0772 µM)
Structure (SMILES): Cc1nc(-c2cnc(OCCOc3c(C)cc(-c4noc(C(F)(F)F)n4)cc3C)c(F)c2)no1 [Compound 115, 2-[2-[2,6-dimethyl-4-[5-(trifluoromethyl)-1,2,4-oxadiazole-3-yl]phenoxyl]ethoxyl]-3-fluoro-5-(5-methyl-1,2,4-oxadiazole-3-yl)-pyridine]
TC50 (half of the toxic concentration) ([2]; Vero cells, Cox_B3): 37.55 µg/mL

IC50 [1, 3]: 0.033 µg/mL (≈ 0.0696 µM)
Structure (SMILES): Cc1nc(-c2ccc(OCCCOc3c(C)cc(-c4noc(C(F)(F)F)n4)cc3C)cc2)no1 [Compound 117, 3-[3,5-dimethyl-4-[3-[4-(5-methyl-1,2,4-oxadiazole-3-yl]phenoxyl]propoxy]phenyl]-5-(trifluoromethyl)-1,2,4-oxadiazole]
TC50 (half of the toxic concentration) ([2]; Vero cells, Cox_B3): 33.28 µg/mL

IC50 [1, 3]: 0.048 µg/mL (≈ 0.0908 µM)
Structure (SMILES): Cc1cc(-c2noc(C(F)(F)F)n2)cc(C)c1OCCCOc1ccc(-c2noc(C(F)(F)F)n2)cc1 [Compound 118, 3-[3,5-dimethyl-4-[3-[4-[5-(trifluoromethyl)-1,2,4-oxadiazole-3-yl]phenoxyl]propoxy]phenyl]-5-(trifluoromethyl)-1,2,4-oxadiazole]
TC50 (half of the toxic concentration) ([2]; Vero cells, Cox_B3): 37.21 µg/mL

IC50 [1, 3]: 0.042 µg/mL (≈ 0.0883 µM)
Structure (SMILES): Cc1nc(-c2ccc(OCCCOc3c(C)cc(-c4noc(C(F)(F)F)n4)cc3C)nc2)no1 [Compound 119, 2-[3-[2,6-dimethyl-4-[5-(trifluoromethyl)-1,2,4-oxadiazole-3-yl]phenoxyl]propoxy]-5-(5-methyl-1,2,4-oxadiazole-3-yl]-pyridine]
TC50 (half of the toxic concentration) ([2]; Vero cells, Cox_B3): 36.28 µg/mL

IC50 [1, 3]: 0.039 µg/mL (≈ 0.079 µM)
Structure (SMILES): Cc1nc(-c2cnc(OCCCOc3c(C)cc(-c4noc(C(F)(F)F)n4)cc3C)c(F)c2)no1 [Compound 121, 2-[3-[2,6-dimethyl-4-[5-(trifluoromethyl)-1,2,4-oxadiazole-3-yl]phenoxyl]propoxy]-3-fluoro-5-(5-methyl-1,2,4-oxadiazole-3-yl)-pyridine]
TC50 (half of the toxic concentration) ([2]; Vero cells, Cox_B3): 36.17 µg/mL

IC50 [1, 3]: 0.041 µg/mL (≈ 0.0749 µM)
Structure (SMILES): Cc1cc(-c2noc(C(F)(F)F)n2)cc(C)c1OCCCOc1ncc(-c2noc(C(F)(F)F)n2)cc1F [Compound 122, 2-[3-[2,6-dimethyl-4-[5-(trifluoromethyl)-1,2,4-oxadiazole-3-yl]phenoxyl]propoxy]-3-fluoro-5-[5-(trifluoromethyl)-1,2,4-oxadiazole-3-yl]-pyridine]
TC50 (half of the toxic concentration) ([2]; Vero cells, Cox_B3): 34.87 µg/mL

IC50 [1, 3]: 0.045 µg/mL (≈ 0.103 µM)
Structure (SMILES): Cc1cc(-c2noc(C(F)(F)F)n2)cc(C)c1OCCCOc1ccc([N+](=O)[O-])cn1 [Compound 134, 2-[3-[2,6-dimethyl-4-[5-(trifluoromethyl)-1,2,4-oxadiazole-3-yl]phenoxyl]propoxy]-5-nitropyridine]
TC50 (half of the toxic concentration) ([2]; Vero cells, Cox_B3): 40.25 µg/mL
